Test results taken from patent publication US20100056445A1, “ADIPONECTIN FOR THE TREATMENT AND DIAGNOSIS OF ALBUMINURIA” (THOMAS JEFFERSON UNIVERSITY, priority 2006, published 2010).
“Also recorded” adds a separate entry of the source.

Columns and labels:
Nox4 = Nox4 protein in cultured podocytes (immunoblot, confocal); assay type: cell-based, mouse; details: AICAR; podocytes grown in high glucose (HG)
podocyte monolayer = experiment: Albumin permeability across differentiated podocyte monolayer (Transwell); assay type: cell-based, mouse; details: for Albumin permeability across podocyte monolayer: 1 mM; for Effect on the protective effect of adiponectin on podocyte permeability: ARA-A 1 mM pre-treatment prior to addition of adiponectin; for Permeability of albumin across a podocyte monolayer: adiponectin (globular or full length) 3 μg/ml, serum free, vs. control
Method: Podocyte cell culture: Conditionally immortalized mouse podocytes were kindly provided by Dr. Peter Mundel (Albert Einstein College of Medicine, Bronx, N.Y.) and were cultured as previously described (27). The cells harbor a temperature-sensitive variant of the SV40 large T antigen (tsA58) that is inducible by γ-interferon and stable at 33° C. but rapidly degraded at 37° C. (27). At 33° C., the large T antigen allows for cellular proliferation. The proliferating cells are maintained in collagen I—coated flasks in RPMI-1640 media supplemented with 10% FBS and 10 units/ml mouse recombinant γ-interferon. When the cells have reached confluence, they are passaged and allowed to differentiate at 37° C. for 8-10 days without γ-interferon in Dulbecco's modified Eagle's medium containing 5.5 mmol/l glucose and 5% FCS. For the permeability assay a modification of a previously published protocol (28) was adopted. Differentiated podocytes (0.2×10^6 podocytes/well) plated on collagen coated 24 well Transwell plates (Corning) were serum-starved ovenight when confluent. Cells were then modulated with globular adiponectin (PepROTech Inc.) with or without 1 mM adenosine 9-p-D-arabinofuranoside (ARA-A) (Sigma, St. Louis, Mo.), for 24 h. Cells were then washed twice with PBS supplemented with 1 mM MgCl2 and 1 mM CaCl2. The upper compartment was refilled with 0.25 ml RPMI 1640 alone and the lower compartment with 0.5 ml RPMI 1640 supplemented with 40 mg/ml BSA and incubated for 2 hour at 37° C. Total protein concentration in the upper compartment was determined using a Bio-Rad protein assay (Bio-Rad Laboratories, Hercules, Calif.).

[1] = test system: Adiponectin KO (Ad−/−) mice; experiment: Urine albumin/creatinine ratio in treated adiponectin KO mice; assay type: in vivo, mouse; details: Ad−/− mice at 4 months of age
Method: Adiponectin administration and animal studies: The mice were treated with 25 μg of recombinant human globular domain adiponectin (gAd; PepROTech, Rocky Hill, N.J.) subcutaneously twice daily for 10 consecutive days. The control animals were given PBS alone. 24-hour urines from each mouse were collected twice: one week before the injections and on the last day of the injections. The urine albumin and creatinine were measured with a mouse Albuwell ELISA kit and a Creatinine Companion kit (Exocell, Philadelphia, Pa.) (25,26). The mice were sacrificed five hours after the final gAd injection under anesthesia. Portions of kidney cortex were fixed in buffered formalin and embedded in paraffin. A portion of kidney cortical tissue was cut into 1 mm^3 pieces and fixed in 2.5% glutaraldehyde
(§1) Interventional animal studies: The mice were treated with 25 μg of recombinant human globular domain adiponectin gAd (PepROTech, Rocky Hill, N.J.), administered 25 μg/mouse twice a day for 10 consecutive days or full-length adiponectin (fAd) was administered using an AAV vector (AAV2/8 CMV fAd virus 4×1011 GC/mouse for 10 days). A separate group of Ad−/− mice were treated with 5-aminoimidazole-4-carboxamide-1-beta-D-ribonucleoside (AICAR) with a single i.p. dose of 300 mg/kg. The control animals were given PBS alone or control AAV. 24-hour urines from each mouse were collected before treatment and on the last day of the treatment period. The urine albumin and creatinine were measured with a mouse Albuwell ELISA kit and a Creatinine Companion kit (Exocell, Philadelphia, Pa.) (26, 25). As an index of oxidant stress timed urine collections were also analyzed for hydrogen peroxide by Amplex red assay (Invitrogen/Molecular Probes, Carlsbad, Calif.) following the manufacturer's protocol. Portions of liver, muscle and kidney was snap-frozen in liquid nitrogen for RNA isolation. An additional aliquot of normal kidney was frozen in OCT for immunofluorescent staining. […]

Ad−/− mice = experiment: Urinary hydrogen peroxide (Amplex red) in Ad−/− mice; assay type: in vivo, mouse; details: 4 month-old Ad−/− mice
Method: as §1

Question: How did the “Podocyte Nox4 protein” value (Nox4) turn out when NC(=O)c1ncn([C@@H]2O[C@H](CO)[C@@H](O)[C@H]2O)c1N [AICAR, 5-aminoimidazole-4-carboxamide-1-beta-D-ribonucleoside, reference compound] was run?
Answer: The value was “reduced Nox4 protein levels to a similar degree as adiponectin”.

Question: What about the “Albumin permeability across podocyte monolayer” value (podocyte monolayer; AMPK activator AICAR) of the same molecule?
Answer: Its value is “decreased”.

Question: What about the “Urine albumin/creatinine ratio (albuminuria)” value ([1]; AICAR single i.p. dose of 300 mg/kg, 300 mg/kg) of the same molecule?
Answer: Its value is “restored albuminuria; also recorded: significantly decreased urine albumin/creatinine to the control values seen in WT mice”.

Question: What about the “Urinary levels of hydrogen peroxide” value (Ad−/− mice; AICAR single i.p. dose of 300 mg/kg) of the same molecule?
Answer: The value was “reduced”.

Question: For Nc1ncnc2c1ncn2[C@@H]1O[C@H](CO)[C@@H](O)[C@@H]1O [ARA-A, adenosine 9-p-D-arabinofuranoside], which “Albumin permeability across podocyte monolayer” value (podocyte monolayer; AMPK inhibitor ARA-A alone) is on record?
Answer: Its value is “increased permeability to albumin”.

Question: What about the “Albumin permeability across podocyte monolayer” value (podocyte monolayer; AMPK inhibitor ARA-A alone, listed as ARA) of the same molecule?
Answer: The value was “increased”.

Question: And the “Effect on the protective effect of adiponectin on podocyte permeability” value (podocyte monolayer)?
Answer: The value was “prevented the protective effects of adiponectin on podocyte permeability; also recorded: increased permeability to albumin; also recorded: blocked protective effect of adiponectin”.

Question: And the “Effect on the protective effect of adiponectin on podocyte permeability” value (podocyte monolayer; listed as ARA)?
Answer: Its value is “blocked”.

B1: fAd: full-length adiponectin; in mice administered using an AAV vector (AAV2/8 CMV fAd virus) (protein, listed as Homo sapiens)
chain: MLLLGAVLLLLALPGHDQETTTQGPGVLLPLPKGACTGWMAGIPGHPGHNGAPGRDGRDGTPGEKGEKGDPGLIGPKGDIGETGVPGAEGPRGFPGIQGRKGEPGEGAYVYRSAFSVGLETYVTIPNMPIRFTKIFYNQQNHYDGSTGKFHCNIPGLYYFAYHITVYMKDVKVSLFKKDKAMLFTYDQYQENNVDQASGSVLLHLEVGDQVWLQVYGEGERNGLYADNDNDSTFTGFLLYHDTN
modifications: delivered via AAV2/8 CMV vector
Question: B1 was tested. Which “Permeability of albumin across a podocyte monolayer” value (podocyte monolayer) did it give?
Answer: The value was “reduced”.

Question: And the “Permeability of albumin across a podocyte monolayer” value (podocyte monolayer; listed as full length adiponectin)?
Answer: The value was “significantly reduced”.

Question: What about the “Urine albumin/creatinine ratio (albuminuria)” value ([1]; fAd by AAV vector, 10 days) of the same molecule?
Answer: Its value is “significantly decreased urine albumin/creatinine to the control values seen in WT mice”.

Question: What about the “Urinary levels of hydrogen peroxide” value (Ad−/− mice; fAd by AAV vector, 10 days) of the same molecule?
Answer: Its value is “reduced”.
